In patent publication US7902175B2, “Aminopropanol derivatives” (Novartis AG, priority 2003, dated 2011):
One block for each molecule: values may come before it.

What was measured:
S1P-4 = biological target: T1, S1P-4 (Homo sapiens, UniProt O95977); experiment: GTPγS binding assay using S1P receptor/HEK293 membrane preparations; format: biochemical; conditions: for EC50: GTPγS binding, transiently transfected HEK293 membranes
T1 construct: expressed in transfected cells; host or cells: HEK293 (transient, calcium phosphate); crude membranes
T1 sequence (O95977 1-384): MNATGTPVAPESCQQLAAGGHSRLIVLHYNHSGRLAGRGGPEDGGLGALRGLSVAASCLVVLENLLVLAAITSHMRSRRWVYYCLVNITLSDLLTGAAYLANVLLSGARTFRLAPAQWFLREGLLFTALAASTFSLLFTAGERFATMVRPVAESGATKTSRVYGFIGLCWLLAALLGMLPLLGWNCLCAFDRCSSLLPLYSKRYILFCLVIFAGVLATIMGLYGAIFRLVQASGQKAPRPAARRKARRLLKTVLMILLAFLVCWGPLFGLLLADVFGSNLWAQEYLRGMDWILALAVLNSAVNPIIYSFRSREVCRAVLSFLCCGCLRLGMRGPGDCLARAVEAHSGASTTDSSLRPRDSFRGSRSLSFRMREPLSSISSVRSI
Text: (§1) The compounds of the invention have binding affinity to individual human S1P receptors as determined in following assays:
(§2) Transient Transfection of Human S1P Receptors into HEK293 Cells
(§3) S1P receptors and Gi proteins are cloned, and equal amounts of 4 cDNAs for the S1P receptor, Gi-α, Gi-β and Gi-γ are mixed and used to transfect monolayers of HEK293 cells using the calcium phosphate precipitate method (M. Wigler et al., Cell. 1977; 11; 223 and DS. Im et al., Mol. Pharmacol. 2000; 57; 753). Briefly, a DNA mixture containing 25 μg of DNA and 0.25 M CaCl is added to HEPES-buffered 2 mM Na2HPO4. Subconfluent monolayers of HEK293 cells are poisoned with 25 […], and the DNA precipitate is then applied to the cells. After 4 h, the monolayers are washed with phosphate-buffered saline and refed media (90% 1:1 Dulbecco's modified essential media (DMEM):F-12+10% fetal bovine serum). The cells are harvested 48-72 h after addition of the DNA by scraping in HME buffer (in mM: 20 HEPES, 5 MgCl2, 1 EDTA, pH 7.4) containing 10% sucrose on ice, and disrupted using a Dounce homogenizer. After centrifugation at 800×g, the supernatant is diluted with HME without sucrose and centrifuged at 100,000×g for 1 h. The resulting pellet is rehomogenized and centrifuged a second hour at 100,000×g. This crude membrane pellet is resuspended in HME with sucrose, aliquoted, and snap-frozen by immersion in liquid nitrogen. The membranes are stored at […] Protein concentration is determined spectroscopically by Bradford protein assay.
(§4) GTPγS Binding Assay Using S1P Receptor/HEK293 Membrane Preparations
(§5) GTPγS binding experiments are performed as described by D S. Im et al., Mol. Pharmacol. 2000; 57:753. Ligand-mediated GTPγS binding to G-proteins is measured in GTP binding buffer (in mM: 50 HEPES, 100 NaCl, 10 MgCl2, pH 7.5) using 25 μg of a membrane preparation from transiently transfected HEK293 cells. Ligand is added to membranes in the presence of 10 μM GDP and 0.1 nM [^35S]GTPγS (1200 Ci/mmol) and incubated at 30° C. for 30 min. Bound GTPγS is separated from unbound using the Brandel harvester (Gaithersburg, Md.) and counted with a liquid scintillation counter.

human S1P receptors = experiment: GTPγS binding assay, S1P receptors in general; format: biochemical
Text: as §1, §2
S1P receptors and Gi proteins are cloned, and equal amounts of 4 cDNAs for the S1P receptor, Gi-α, Gi-β and Gi-γ are mixed and used to transfect monolayers of HEK293 cells using the calcium phosphate precipitate method (M. Wigler et al., Cell. 1977; 11; 223 and DS. Im et al., Mol. Pharmacol. 2000; 57; 753). Briefly, a DNA mixture containing 25 μg of DNA and 0.25 M CaCl is added to HEPES-buffered 2 mM Na2HPO4. Subconfluent monolayers of HEK293 cells are poisoned with 25 […], and the DNA precipitate is then applied to the cells. […] Protein concentration is determined spectroscopically by Bradford protein assay. […]
as §5, with “Ligand is added to membranes in the presence of 10 μM GDP and 0.1 nM [^35S]GTPγS (1200 Ci/mmol) and incubated at 30° C. for 30 min.” left out

S1P-3 = biological target: T2, S1P-3 (Homo sapiens, UniProt Q99500); experiment: GTPγS binding assay using S1P receptor/HEK293 membrane preparations; format: biochemical
T2 construct: expressed in transfected cells; host or cells: HEK293 (transient, calcium phosphate); crude membranes
Protocol: as §2, §3, §4, §5

S1P-1 = biological target: T3, S1P-1 (Homo sapiens, UniProt P21453); experiment: as above; format: biochemical
T3 construct: expressed in transfected cells; host or cells: HEK293 (transient, calcium phosphate); crude membranes
Protocol: as §2
as §3, with “Briefly,” for “S1P receptors and Gi proteins are cloned, and equal amounts of 4 cDNAs for the S1P receptor, Gi-α, Gi-β and Gi-γ are mixed and used to transfect monolayers of HEK293 cells using the calcium phosphate precipitate method (M. Wigler et al., Cell. 1977; 11; 223 and DS. Im et al., Mol. Pharmacol. 2000; 57; 753). Briefly,”
as §4
as §5, with “Ligand-mediated” for “GTPγS binding experiments are performed as described by D S. Im et al., Mol. Pharmacol. 2000; 57:753. Ligand-mediated”

S1P-5 = biological target: T4, S1P-5 (Homo sapiens, UniProt Q9H228); experiment: as above; format: biochemical
T4 construct: expressed in transfected cells; host or cells: HEK293 (transient, calcium phosphate); crude membranes
Protocol: as §2
as §3, with “Briefly,” for “S1P receptors and Gi proteins are cloned, and equal amounts of 4 cDNAs for the S1P receptor, Gi-α, Gi-β and Gi-γ are mixed and used to transfect monolayers of HEK293 cells using the calcium phosphate precipitate method (M. Wigler et al., Cell. 1977; 11; 223 and DS. Im et al., Mol. Pharmacol. 2000; 57; 753). Briefly,”
as §4
as §5, with “Ligand-mediated” for “GTPγS binding experiments are performed as described by D S. Im et al., Mol. Pharmacol. 2000; 57:753. Ligand-mediated”

S1P-2 = biological target: T5, S1P-2 (Homo sapiens, UniProt O95136); experiment: as above; format: biochemical; conditions: transiently transfected HEK293 membranes
T5 construct: expressed in transfected cells; host or cells: HEK293 (transient, calcium phosphate); crude membranes
Protocol: as §2, §3, §4, §5

[1] = Chiral HPLC determination of FTY720-phosphate enantiomers in blood after dosing 14C-labeled FTY720; format: in vivo; conditions: rats, orally 7.5 mg/kg or intravenous infusion 4 mg/kg; blood e.g. 3 or 72 hours after dosing
Text: In a further aspect, the present invention provides a method of determining the amount of the R and/or S isomers of a compound of formula II present in a sample, comprising (a) reacting the compound of formula II present in the sample with benzene-1,2-dicarbaldehyde to form a compound of formula I, and separating the R and S isomers of the compound of formula I by HPLC. The HPLC is preferably performed as described above, using a chiral ion-exchange phase e.g. based on quinine carbamate or quinidine carbamate. The compounds of formula I are useful as intermediates in such a method. The sample may be e.g. a sample derived from a bodily fluid e.g. blood, plasma, saliva, or urine, and may be first subjected to one or more separation steps, (e.g. extraction with methanol and/or non-chiral HPLC) in order to separate the compound of formula II from the fluid. By such a method the amount of the active R or S enantiomer in the sample may be determined. […]
For example, achiral 14C-labeled FTY720 is administered to rats either orally (7.5 mg/kg) or by intravenous infusion (4 mg/kg). […] The derivative is spiked with unlabelled OPA-derivatized R and S FTY720-phosphate as retention time markers (monitored by UV at 215 nm) and subjected to chiral HPLC separation using a ProntoSIL Chiral AX QN-1 column.

[2] = GTPγS binding, transiently transfected HEK293 membranes

T2 sequence (Q99500 whole entry): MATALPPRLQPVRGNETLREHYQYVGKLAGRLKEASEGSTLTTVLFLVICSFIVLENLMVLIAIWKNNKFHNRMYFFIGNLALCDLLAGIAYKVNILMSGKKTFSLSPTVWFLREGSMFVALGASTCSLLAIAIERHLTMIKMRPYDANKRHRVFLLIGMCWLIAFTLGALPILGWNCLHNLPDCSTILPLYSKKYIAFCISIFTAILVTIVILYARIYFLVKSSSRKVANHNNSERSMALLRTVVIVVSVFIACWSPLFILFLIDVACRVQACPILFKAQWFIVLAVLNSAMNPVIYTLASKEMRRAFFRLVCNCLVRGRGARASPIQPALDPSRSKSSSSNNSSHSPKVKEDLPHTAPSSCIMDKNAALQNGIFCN
T3 sequence (P21453 whole entry): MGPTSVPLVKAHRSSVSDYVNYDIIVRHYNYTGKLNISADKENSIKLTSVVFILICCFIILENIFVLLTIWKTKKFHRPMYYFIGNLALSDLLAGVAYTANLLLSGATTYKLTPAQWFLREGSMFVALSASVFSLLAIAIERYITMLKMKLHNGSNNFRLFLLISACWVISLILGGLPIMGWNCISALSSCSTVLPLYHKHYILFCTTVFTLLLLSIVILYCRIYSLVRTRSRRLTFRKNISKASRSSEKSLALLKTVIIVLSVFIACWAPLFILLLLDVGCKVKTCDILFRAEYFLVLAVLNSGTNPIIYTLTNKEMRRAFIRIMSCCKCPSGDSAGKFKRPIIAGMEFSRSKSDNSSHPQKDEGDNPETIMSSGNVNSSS
T4 sequence (Q9H228 whole entry): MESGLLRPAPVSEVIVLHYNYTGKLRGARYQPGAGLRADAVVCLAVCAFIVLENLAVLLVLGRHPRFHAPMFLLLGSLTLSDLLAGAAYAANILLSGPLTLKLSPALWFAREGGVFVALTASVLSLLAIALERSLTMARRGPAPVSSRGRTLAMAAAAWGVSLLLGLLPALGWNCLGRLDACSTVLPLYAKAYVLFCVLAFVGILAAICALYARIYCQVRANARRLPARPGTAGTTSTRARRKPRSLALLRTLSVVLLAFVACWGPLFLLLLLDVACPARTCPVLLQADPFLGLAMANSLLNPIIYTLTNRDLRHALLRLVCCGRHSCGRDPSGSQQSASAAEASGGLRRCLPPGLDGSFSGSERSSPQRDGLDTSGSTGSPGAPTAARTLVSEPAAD
T5 sequence (O95136 whole entry): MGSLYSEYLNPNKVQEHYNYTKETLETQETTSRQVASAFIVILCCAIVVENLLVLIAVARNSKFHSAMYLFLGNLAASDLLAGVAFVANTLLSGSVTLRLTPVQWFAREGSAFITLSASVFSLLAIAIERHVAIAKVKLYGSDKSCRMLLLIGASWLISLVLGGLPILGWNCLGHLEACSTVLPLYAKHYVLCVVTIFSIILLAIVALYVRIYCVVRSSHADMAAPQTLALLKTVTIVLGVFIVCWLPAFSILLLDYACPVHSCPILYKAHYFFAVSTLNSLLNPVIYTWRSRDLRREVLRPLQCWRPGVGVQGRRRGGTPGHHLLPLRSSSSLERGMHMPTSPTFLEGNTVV

EC50 (S1P-4): 80.1 nM
agonistic effects on S1P receptors (human S1P receptors): only at very high concentrations
Compound: CCCCCCCCc1ccc(CCC(N)(CO)COP(=O)(O)O)cc1 (single isomer, unassigned) [(R)-FTY720-P, phosphoric acid mono-[2-amino-2-hydroxymethyl-4-(4-octyl-phenyl)-butyl]ester]

EC50 (S1P-4): 0.75 nM
agonist character on S1P4 (S1P-4; in the low nanomolar range): partial agonist
agonist character on S1P3 (S1P-3; in the low nanomolar range): full agonist
agonist character on S1P1 (S1P-1; in the low nanomolar range): full agonist
agonist character on S1P5 (S1P-5; in the low nanomolar range): partial agonist
Compound: CCCCCCCCc1ccc(CCC(N)(CO)COP(=O)(O)O)cc1 (single isomer, unassigned) [(S)-FTY720-P, phosphoric acid mono-[2-amino-2-hydroxymethyl-4-(4-octyl-phenyl)-butyl]ester]

EC50 (S1P-4): 6.6 nM
EC50 (S1P-3; [2]): 140 nM
EC50 (S1P-2): > 10000 nM
EC50 (S1P-1; [2]): 0.4 nM
EC50 (S1P-5; [2]): 7.7 nM
Compound: N[C@@](CO)(CCc1ccc(OCCc2ccc(C(F)(F)F)cc2)cc1)COP(=O)(O)O [Ex. 14, Phosphoric Acid mono-((R)-2-amino-2-hydroxymethyl-4-{4-[2-(4-trifluoromethyl-phenyl)-ethoxy]-phenyl}-butyl)ester]

R-enantiomer of [14C]FTY720-phosphate in blood [1]: not detectable
Compound: CCCCCCCCc1ccc(CCC(N)(CO)CO)cc1 [FTY720, 2-amino-2-[2-(4-octylphenyl)ethyl]propane-1,3-diol]
enantiomer of the metabolite [14C]FTY720-phosphate in all blood samples [1]: exclusively the pharmacologically active S-enantiomer
